What all share (type): cell-based
Data set [1] has as its target T1, GATA4–NKX2-5 transcriptional synergy (Mus musculus, UniProt P42582+Q08369).
T1 construct: expressed in transfected cells; host or cells: COS-1
The data set is described as follows: GATA4–NKX2-5 transcriptional synergy luciferase reporter assay (3xNKE reporter, COS-1 cells). Conditions: COS-1, 3 µM. For orientation: In a reporter assay the amount or activity of a reporter protein is the signal.

Data set [2] has as its system COS-1 cells. In words: MTT assay (cell viability). The conditions noted are these: for MTT.1µM / MTT.3µM / MTT.10µM / MTT.30µM: cell viability. The source says: (§1) To investigate the toxicity as a potential cause of decreased or increased activity in luciferase reporter gene assays, we tested a set of 40 active compounds in the COS-1 cell line used for the luciferase assays. Concentration-dependent toxic effects were investigated using the lactate dehydrogenase (LDH) assay to detect necrosis and the 3-(4,5-dimethylthiazol-2-yl)-2,5-diphenyltetrazolium bromide (MTT) assay as a measure of cell viability. […] For the data analysis, compounds were classified as toxic (Figures 5 and 7) if they induced a >10% decrease in cell viability in the MTT assay at the concentration of 10 μM. The most toxic compounds (35a, 35d, 54, 58, and 63–65) in the MTT assay all contained a phenyl substituent in the southern part ring, while the ortho-nitrophenyl-derivative 39g and the phenyl-substituted thiophene 47t were nontoxic. Higher flexibility in the central parts of the ethers (35a, 35d) and N-acylated amines (58, 64) might contribute to their toxicity, because less rigid compounds are more likely to have affinity to various biological targets. Such interactions can cause toxicity. To confirm and validate the results from MTT assays, we tested three nontoxic (2, 47s, and 72) and three toxic (1, 35a, and 58) compounds in a cell viability assay measuring intracellular ATP content.
(§2) Figure 5 Effects of selected compounds on COS-1 cell viability. (A) Compound-induced necrosis was quantified with the LDH assay after a 24-h compound exposure. The data are presented as cytotoxicity percentage (% of maximal LDH release). (B) Cell viability was analyzed with the MTT assay after a 24-h compound exposure. (A,B) The data are means from 2–3 independent experiments with 3 replicate wells in each and are presented as % of control (vehicle-treated cells). The compounds have been grouped on the basis of the structure of the central part: a, amide; b, ether; c, N-acylated amine; d, amine; and e, imine. (C) The effects of selected compounds on cell viability as determined by ATP content after a 24-h compound exposure. The data are mean + SEM from three independent experiments and are presented as % of vehicle-treated cells.
(§3) For toxicity screening, COS-1 cells were cultured in DMEM (Sigma-Aldrich, Steinheim, Germany) supplemented with 10% fetal bovine serum, 100 U/mL penicillin, and 100 μg/mL streptomycin (all from Gibco, Thermo Scientific) at 37 °C with 5% CO2. The cells were plated on 96-well plates at 10 000 cells/well and exposed to test compounds at a concentration range of 1–30 μM on the following day. After a 24-h compound treatment, lactate dehydrogenase (LDH) and 3-(4,5-dimethylthiazol-2-yl)-2,5-diphenyltetrazolium bromide (MTT) assays were carried out as described previously.[48] Briefly, LDH activity was determined from 50 μL samples of cell culture medium, to which 50 μL of substrate solution [1.3 mM β-nicotinamide-adenine dinucleotide, 660 μM iodonitrotetrazolium, 54 mM L(+)-lactic acid, and 280 μM phenazine methosulfate in 0.2 M Tris-HCl, pH 8.2, all from Sigma-Aldrich] was added, and the plate was incubated for 30 min at room temperature. The reaction was stopped with acetic acid (final concentration 333 mM), and absorbance was measured at 490 nm. The absorbance values of the samples were normalized to maximal LDH release and spontaneous LDH release determined on the same plate. Mitochondrial metabolic activity was quantified by incubating the cells with 0.5 mg/mL MTT (from Sigma-Aldrich) for 2 h at 37 °C with 5% CO2, whereafter culture medium was removed and formazan crystals were dissolved in DMSO. The absorbance was measured at 550 nm, and absorbance at 650 nm was subtracted as background.

In data set [3] the target is T2, GATA4 transcriptional activity (Mus musculus, UniProt Q08369).
T2 construct: expressed in transfected cells; host or cells: COS-1
T2 sequence (Q08369 whole entry): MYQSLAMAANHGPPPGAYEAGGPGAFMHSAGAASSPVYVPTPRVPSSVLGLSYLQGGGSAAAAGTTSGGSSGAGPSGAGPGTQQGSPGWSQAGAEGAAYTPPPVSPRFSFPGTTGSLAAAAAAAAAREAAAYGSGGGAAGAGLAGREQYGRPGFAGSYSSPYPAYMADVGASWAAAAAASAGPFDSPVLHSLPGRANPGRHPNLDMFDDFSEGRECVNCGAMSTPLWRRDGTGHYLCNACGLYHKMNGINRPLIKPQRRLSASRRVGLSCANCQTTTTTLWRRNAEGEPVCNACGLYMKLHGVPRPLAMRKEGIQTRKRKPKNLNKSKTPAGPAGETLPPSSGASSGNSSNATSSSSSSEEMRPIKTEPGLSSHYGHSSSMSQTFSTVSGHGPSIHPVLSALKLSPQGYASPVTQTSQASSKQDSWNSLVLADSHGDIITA
The data set is described as follows: GATA4 luciferase reporter assay (tandem GATA-site reporter, COS-1 cells). The conditions noted are these: for activity at 3 µM: COS-1.

In data set [4] the test system is COS-1 cells. The data set is described as follows: LDH assay (necrosis).
Source text: as §1, §2, §3

Data set [5] has as its target T3, NKX2-5 transcriptional activity (Mus musculus, UniProt P42582).
T3 construct: expressed in transfected cells; host or cells: COS-1
The data set is described as follows: NKX2-5 luciferase reporter assay (3xNKE reporter, COS-1 cells). The conditions noted are these: COS-1, 3 µM, read-out: NKX.3µM.

Where [6] appears, read: luciferase reporter activity relative to control.
Setting [7] is: luciferase reporter activity, % of control.

Each structure is given as a SMILES string. Read-outs that look alike come from different tables or passages of the source.

The values below come from PMC7076710, “Synthesis, Identification, and Structure–Activity Relationship Analysis of GATA4 and NKX2-5 Protein–Protein Interaction Modulators” (Journal of Medicinal Chemistry, 2019).

T1 sequence (Q08369 whole entry): as above
T1 sequence (P42582 whole entry): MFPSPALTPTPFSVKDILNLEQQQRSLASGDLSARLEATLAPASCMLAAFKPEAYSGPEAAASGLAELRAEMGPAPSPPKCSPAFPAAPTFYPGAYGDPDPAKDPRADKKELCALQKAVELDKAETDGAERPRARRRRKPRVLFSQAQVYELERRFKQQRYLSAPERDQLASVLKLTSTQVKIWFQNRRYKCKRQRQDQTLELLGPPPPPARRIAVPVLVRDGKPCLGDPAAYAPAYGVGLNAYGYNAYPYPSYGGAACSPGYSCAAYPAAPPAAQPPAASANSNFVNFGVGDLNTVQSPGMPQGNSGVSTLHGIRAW
T3 sequence (P42582 whole entry): as above

Take `Cc1onc(-c2ccccc2)c1C(=O)Nc1ccc2oc(-c3ccccc3)cc(=O)c2c1` [Compound 4g]: the activity at 3 µM in data set [1] (setting [6]) is 62.6%. Further, in the data set with COS-1 cells [2], the MTT.1µM is 109.72, the MTT.3µM stood at 101.99, the MTT.10µM is on record as 88.31 and the MTT.30µM is recorded as 82.48. In data set [3] (10 μM, COS-1 cells, 24 h), the “GATA4 (% of control) Mean ± SD” value is on record as 66 % of control. The activity at 3 µM in data set [3] (setting [6]) is 40.2%. Further, in the data set on COS-1 cells [4], the LDH.1µM is -0.29, the LDH.3µM is on record as 0.38, the LDH.10µM is reported as -0.94 and the LDH.30µM was -0.1. Also, the activity at 3 µM in data set [5] (setting [6]) came to 85.2%.

As for `CCN(c1ccc(NC(=O)c2c(-c3ccccc3)noc2C)cc1)C(C)C` [Compound 4i, N-[4-[Ethyl(isopropyl)amino]phenyl]-5-methyl-3-phenylisoxazole-4-carboxamide], the activity at 3 µM in data set [1] (setting [6]) stood at 64.9%. In the data set with COS-1 cells [2], the MTT.1µM is 100.09, the MTT.3µM came to 98.4, the MTT.10µM is 87.88 and the MTT.30µM is listed as 85.16. Besides, the activity at 3 µM in data set [3] (setting [6]) was found to be 84.1%. Besides, in the data set on COS-1 cells [4], the LDH.1µM stood at 0.82, the LDH.3µM came to 0.18, the LDH.10µM is -0.77 and the LDH.30µM is listed as -0.17. The activity at 3 µM in data set [5] (setting [6]) is 55.3%.

`Cc1onc(-c2ccccc2)c1C(=O)Nc1ccc(C#C[Si](C)(C)C)cc1` [Compound 4j, 5-Methyl-3-phenyl-N-[4-[(trimethylsilyl)ethynyl]phenyl]isoxazole-4-carboxamide]: the activity at 3 µM in data set [1] (setting [6]) is 67.8%. In the data set on COS-1 cells [2], the MTT.1µM is reported as 104.97, the MTT.3µM is recorded as 104.95 and the MTT.10µM stood at 102.07. In addition, the activity at 3 µM in data set [3] (setting [6]) is 110%. Further, in the data set on COS-1 cells [4], the LDH.1µM came to 1.09, the LDH.3µM was found to be 1.13, the LDH.10µM came out at 0.61 and the LDH.30µM turned out to be 1.5. In addition, in data set [5] (setting [6]), the activity at 3 µM is 98.2%.

Take `C=CCN(Cc1ccc(N(CC)CC)cc1)c1c(-c2ccccc2)noc1C` [Compound 30b]: the activity at 3 µM in data set [1] (setting [6]) was determined as 84.5%. Besides, in the data set on COS-1 cells [2], the MTT.1µM came out at 104.18, the MTT.3µM turned out to be 97.12, the MTT.10µM was 96.41 and the MTT.30µM worked out at 84.34. Moreover, the activity at 3 µM in data set [3] (setting [6]) came to 82.8%. Besides, in the data set on COS-1 cells [4], the LDH.1µM was -1.6, the LDH.3µM is given as -0.27, the LDH.10µM turned out to be 1.75 and the LDH.30µM was 3.61. Further, the activity at 3 µM in data set [5] (setting [6]) is 97.2%.

Take `CCN(CC)c1ccc(CN(C(=O)C(F)(F)F)c2c(-c3ccccc3)noc2C)cc1` [Compound 30c]: in data set [1] (setting [6]), the activity at 3 µM is 100%. In the data set on COS-1 cells [2], the MTT.1µM turned out to be 100.8, the MTT.3µM was 97.78, the MTT.10µM is recorded as 91.24 and the MTT.30µM is recorded as 75.4. The activity at 3 µM in data set [3] (setting [6]) came to 92.4%. Further, in the data set on COS-1 cells [4], the LDH.1µM turned out to be 1.2, the LDH.3µM stood at 0, the LDH.10µM is -0.99 and the LDH.30µM was -1.08. The activity at 3 µM in data set [5] (setting [6]) came out at 113%.

`CCN(CC)c1ccc(CNc2c(-c3ccccc3)noc2C)cc1` [Compound 33, N-[4-(Diethylamino)benzyl]-5-methyl-3-phenylisoxazol-4-amine]: the activity at 3 µM in data set [1] (setting [6]) amounted to 97.5%. In the data set on COS-1 cells [2], this molecule yielded an MTT.1µM of 111.17, an MTT.3µM of 102.56, an MTT.10µM of 104.2 and an MTT.30µM of 96.47. Also, the activity at 3 µM in data set [3] (setting [6]) is 114%. In the data set on COS-1 cells [4], this molecule gave an LDH.1µM of 2.57, an LDH.3µM of 2.98, an LDH.10µM of 2.01 and an LDH.30µM of 0.31. Besides, the activity at 3 µM in data set [5] (setting [6]) is 99%.

In the case of `CC(=O)COC(=O)c1ccc(OCc2c(-c3ccccc3)noc2C)cc1` [Compound 35d], the activity at 3 µM in data set [1] (setting [6]) stood at 51.3%. Also, in the data set on COS-1 cells [2], the MTT.1µM is given as 81.99, the MTT.3µM was determined as 73.26, the MTT.10µM came to 64.91 and the MTT.30µM is on record as 61.12. Also, the “toxicity class in the MTT assay” value in the data set on COS-1 cells [2] (24-h exposure, classified at 10 μM) is reported as “most toxic”. For the same molecule, in data set [3] (setting [6]), the activity at 3 µM was found to be 65.3%. Further, in the data set on COS-1 cells [4], the LDH.1µM was -0.61, the LDH.3µM is listed as -0.5, the LDH.10µM is recorded as -0.15 and the LDH.30µM is on record as -0.05. Besides, the activity at 3 µM in data set [5] (setting [6]) worked out at 56.8%.

As to `CCN(CC)c1ccc(NC(=O)c2c(-c3ccncc3)noc2C)cc1` [Compound 39c], the activity at 3 µM in data set [1] (setting [6]) was 81.1%. In the data set on COS-1 cells [2], this molecule had an MTT.1µM of 105.77, an MTT.3µM of 106.28, an MTT.10µM of 90.58 and an MTT.30µM of 90.91. In data set [3] (setting [6]), the activity at 3 µM came out at 94%. Besides, in the data set with COS-1 cells [4], the LDH.1µM is recorded as 0.58, the LDH.3µM is 0.49, the LDH.10µM is recorded as -0.99 and the LDH.30µM is listed as -0.68. In addition, in data set [5] (setting [6]), the activity at 3 µM turned out to be 100%.

As to `CCN(CC)c1ccc(NC(=O)c2c(-c3ccc(F)cc3)noc2C)cc1` [Compound 39d, N-[4-(Diethylamino)phenyl]-3-(4-fluorophenyl)-5-methylisoxazole-4-carboxamide], the activity at 3 µM in data set [1] (setting [7]) was 61.4%. In addition, in the data set with COS-1 cells [2] (COS-1 cells), the MTT.1µM is 99.41%, the MTT.3µM came to 97.69%, the MTT.10µM came out at 91.72% and the MTT.30µM is listed as 87.25%. Also, the activity at 3 µM in data set [3] (setting [7]) is 94.4%. Further, in the data set on COS-1 cells [4] (COS-1 cells), the LDH.1µM worked out at 3.12, the LDH.3µM is listed as -0.19, the LDH.10µM is on record as -0.49 and the LDH.30µM was determined as 2.51. Moreover, the activity at 3 µM in data set [5] (setting [7]) was 73.3%.

For the molecule `CCN(CC)c1ccc(NC(=O)c2c(-c3ccsc3)noc2C)cc1` [Compound 39m], the activity at 3 µM in data set [1] (setting [6]) came out at 87.2%. In the data set on COS-1 cells [2], this molecule had an MTT.1µM of 102.49, an MTT.3µM of 98.85, an MTT.10µM of 88.28 and an MTT.30µM of 82.62. For the same molecule, in data set [3] (setting [6]), the activity at 3 µM is 103%. Also, in the data set with COS-1 cells [4], the LDH.1µM is given as -0.35, the LDH.3µM worked out at 0.79, the LDH.10µM was -1.72 and the LDH.30µM was -1.23. Further, in data set [5] (setting [6]), the activity at 3 µM was 122%.
